{"source": "patent US20210238698A1", "about": "“METHODS OF DIAGNOSING AND TREATING CANCER PATIENTS EXPRESSING HIGH LEVELS OF TGF-B RESPONSE SIGNATURE” (MEDPACTO, INC., priority 2018, published 2021)", "test_system": "patients with advanced solid tumors", "test": "Phase I trial of single administration of Vactosertib, tumor assessment (anti-tumor activity)", "format": "in vivo, human", "source_text": "A ‘responder’ refers to a Patient whose best overall response on treatment was stable disease (SD) or greater, and a ‘non-responder’ refers to a patient whose best overall response on treatment was progression on disease (PD) or worse. The unit for all data of gene expression is TPM (Transcripts Per Kilobase Million). The CD8A gene is implicated in playing an important role in the immune response. The cytolytic score is used to assess anticancer immunity. […]\nIn particular, the F-TBRS and the cytolytic score in cancer of responders and non-responders at the Phase I trial of single administration of Vactosertib (the compound represented by Formula II; TEW-7197) were analyzed and the results were shown in FIG. 3.\nIn addition, the EMT/F-TBRS expression distribution from the TCGA database of bladder cancer was analyzed and the results are shown in FIG. 4. […]", "data": [{"compound": "Cc1cccc(-c2[nH]c(CNc3ccccc3F)nc2-c2ccc3ncnn3c2)n1", "note": "[Vactosertib, N-((4-([1,2,4]triazolo[1,5-a]pyridin-6-yl)-5-(6-methylpyridin-2-yl)-1H-imidazol-2-yl)methyl)-2-fluoroaniline]", "values": [{"measurement": "patients who achieved SD (stable disease, responder)", "setting": "Phase I, higher doses (≥140 mg, qd)", "result": "seven"}, {"measurement": "tumor shrinkage", "setting": "one patient with bladder cancer at the Phase I trial, high EMT/F-TBRS expression", "result": "−25", "unit": "%"}]}]}
